The assay has as its system MV-4-11 cells. In words: Gene expression microarray analysis (Affymetrix PrimeView) and GSEA. Format: cell-based, human. Details: RFU PODN (11730768_x_at) / Fold change /veh PODN (11730768_x_at) / RFU LINC00158 (11744669_a_at) / Fold change /veh LINC00158 (11744669_a_at) / RFU DUSP10 (11751237_a_at) / Fold change /veh DUSP10 (11751237_a_at) / RFU ID3 (11757404_x_at) / Fold change /veh ID3 (11757404_x_at) / RFU PLEKHG5 (11737974_s_at) / Fold change /veh PLEKHG5 (11737974_s_at) / RFU LRRC4B (11730491_at) / Fold change /veh LRRC4B (11730491_at) / RFU GIMAP4 (11747438_a_at) / Fold change /veh GIMAP4 (11747438_a_at) / RFU KRT8 (11758183_x_at) / Fold change /veh KRT8 (11758183_x_at) / RFU CNN1 (11734310_a_at) / Fold change /veh CNN1 (11734310_a_at) / RFU VPS37D (11726825_at) / Fold change /veh VPS37D (11726825_at) / RFU C10orf10 (11716522_x_at) / Fold change /veh C10orf10 (11716522_x_at) / RFU KIR2DL2 /// KIR2DL4 /// KIR2DL5A /// KIR2DL5B /// KIR2DS1 /// KIR2DS2 /// KIR2DS3 /// KIR2DS4 /// KIR3DL3 /// KIR3DL3 /// KIR3DS1 (11738374_at) / Fold change /veh KIR2DL2 /// KIR2DL4 /// KIR2DL5A /// KIR2DL5B /// KIR2DS1 /// KIR2DS2 /// KIR2DS3 /// KIR2DS4 /// KIR3DL3 /// KIR3DL3 /// KIR3DS1 (11738374_at) / RFU C1QL1 (11718748_at) / Fold change /veh C1QL1 (11718748_at) / RFU TMPRSS4 (11747572_a_at) / Fold change /veh TMPRSS4 (11747572_a_at) / RFU HAMP (11756126_x_at) / Fold change /veh HAMP (11756126_x_at) / RFU RNFT2 (11725882_a_at) / Fold change /veh RNFT2 (11725882_a_at) / RFU NR4A2 (11747474_a_at) / Fold change /veh NR4A2 (11747474_a_at) / RFU ABCC12 (11746883_a_at) / Fold change /veh ABCC12 (11746883_a_at) / RFU TMEM136 (11760407_x_at) / Fold change /veh TMEM136 (11760407_x_at) / RFU CLDN22 /// WWC2 (11732394_at) / Fold change /veh CLDN22 /// WWC2 (11732394_at) / RFU HLA-DPB1 (11760878_x_at) / Fold change /veh HLA-DPB1 (11760878_x_at) / RFU SPINT1 (11716480_a_at) / Fold change /veh SPINT1 (11716480_a_at) / RFU GAP43 (11754022_s_at) / Fold change /veh GAP43 (11754022_s_at) / RFU A4GNT (11735810_at) / Fold change /veh A4GNT (11735810_at) / RFU PRB3 (11715151_x_at) / Fold change /veh PRB3 (11715151_x_at) / RFU TUBB4B (11761932_at) / Fold change /veh TUBB4B (11761932_at) / RFU CAPN14 (11732068_a_at) / Fold change /veh CAPN14 (11732068_a_at) / RFU TMCC2 (11721928_a_at) / Fold change /veh TMCC2 (11721928_a_at) / RFU IRGQ (11745062_a_at) / Fold change /veh IRGQ (11745062_a_at) / RFU FAM174B (11720279_a_at) / Fold change /veh FAM174B (11720279_a_at) / RFU TMPRSS4 (11748680_a_at) / Fold change /veh TMPRSS4 (11748680_a_at) / RFU FAM212B (11763350_a_at) / Fold change /veh FAM212B (11763350_a_at) / RFU PLEKHG5 (11743358_a_at) / Fold change /veh PLEKHG5 (11743358_a_at) / RFU ZSCAN30 (11745921_a_at) / Fold change /veh ZSCAN30 (11745921_a_at) / RFU CMKLR1 (11741424_a_at) / Fold change /veh CMKLR1 (11741424_a_at) / RFU LOC101060620 /// MAPK8IP1 (11723275_at) / Fold change /veh LOC101060620 /// MAPK8IP1 (11723275_at) / RFU SPTSSB (11747773_x_at) / Fold change /veh SPTSSB (11747773_x_at) / RFU PRSS12 (11739890_at) / Fold change /veh PRSS12 (11739890_at) / RFU BIN1 (11741810_x_at) / Fold change /veh BIN1 (11741810_x_at) / RFU WNT11 (11732464_a_at) / Fold change /veh WNT11 (11732464_a_at) / RFU C10orf10 (11716521_a_at) / Fold change /veh C10orf10 (11716521_a_at) / RFU C5orf56 (11738089_at) / Fold change /veh C5orf56 (11738089_at) / RFU CYB561 (11721691_x_at) / Fold change /veh CYB561 (11721691_x_at) / RFU ANKRD19P (11752326_a_at) / Fold change /veh ANKRD19P (11752326_a_at) / RFU OR2T12 /// OR2T33 /// OR2T8 (11738714_s_at) / Fold change /veh OR2T12 /// OR2T33 /// OR2T8 (11738714_s_at) / RFU VCAN (11748164_a_at) / Fold change /veh VCAN (11748164_a_at) / RFU JSRP1 (11732532_at) / Fold change /veh JSRP1 (11732532_at) / RFU KRTAP10-11 (11738290_x_at) / Fold change /veh KRTAP10-11 (11738290_x_at) / RFU MYO3A (11730013_a_at) / Fold change /veh MYO3A (11730013_a_at) / RFU EBF3 (11725865_a_at) / Fold change /veh EBF3 (11725865_a_at) / RFU CAMK2N1 (11719241_x_at) / Fold change /veh CAMK2N1 (11719241_x_at) / RFU C5orf56 (11738088_a_at) / Fold change /veh C5orf56 (11738088_a_at) / RFU OLFML3 (11715873_a_at) / Fold change /veh OLFML3 (11715873_a_at) / RFU LOC100653217 /// NTM (11731650_a_at) / Fold change /veh LOC100653217 /// NTM (11731650_a_at) / RFU MAPK11 (11762145_a_at) / Fold change /veh MAPK11 (11762145_a_at) / RFU FIZ1 (11724087_x_at) / Fold change /veh FIZ1 (11724087_x_at) / RFU OASL (11726364_x_at) / Fold change /veh OASL (11726364_x_at) / RFU SOX15 (11748057_x_at) / Fold change /veh SOX15 (11748057_x_at) / RFU CD79A (11719716_a_at) / Fold change /veh CD79A (11719716_a_at) / RFU HIST1H1D (11736915_at) / Fold change /veh HIST1H1D (11736915_at) / RFU CASKIN2 (11723855_a_at) / Fold change /veh CASKIN2 (11723855_a_at) / RFU LOC730098 (11760151_x_at) / Fold change /veh LOC730098 (11760151_x_at) / RFU OR4N2 (11742367_at) / Fold change /veh OR4N2 (11742367_at) / RFU PRRT2 (11749266_a_at) / Fold change /veh PRRT2 (11749266_a_at) / RFU SNX32 (11753110_a_at) / Fold change /veh SNX32 (11753110_a_at) / RFU CDHR5 (11726645_a_at) / Fold change /veh CDHR5 (11726645_a_at) / RFU RCAN1 (11760418_a_at) / Fold change /veh RCAN1 (11760418_a_at) / RFU FAM167A (11723789_a_at) / Fold change /veh FAM167A (11723789_a_at) / RFU FAM26E (11764081_at) / Fold change /veh FAM26E (11764081_at) / RFU ISYNA1 (11749810_s_at) / Fold change /veh ISYNA1 (11749810_s_at) / RFU ACY1 (11761880_at) / Fold change /veh ACY1 (11761880_at) / RFU 11764098_at / Fold change /veh 11764098_at / RFU SAMD14 (11745864_x_at) / Fold change /veh SAMD14 (11745864_x_at) / RFU NPB (11741838_a_at) / Fold change /veh NPB (11741838_a_at) / RFU TMPRSS6 (11731388_a_at) / Fold change /veh TMPRSS6 (11731388_a_at) / RFU KRTAP10-2 (11738614_at) / Fold change /veh KRTAP10-2 (11738614_at) / RFU ARHGAP8 /// PRR5-ARHGAP8 (11727945_x_at) / Fold change /veh ARHGAP8 /// PRR5-ARHGAP8 (11727945_x_at) / RFU KRTAP5-7 /// NADSYN1 (11734609_at) / Fold change /veh KRTAP5-7 /// NADSYN1 (11734609_at) / RFU RASL12 (11751679_a_at) / Fold change /veh RASL12 (11751679_a_at) / RFU CDKN2B (11736163_a_at) / Fold change /veh CDKN2B (11736163_a_at) / RFU PRF1 (11729649_at) / Fold change /veh PRF1 (11729649_at) / RFU, ZNF638 /// ZNF638-IT1 / Fold change vs veh, ZNF638 /// ZNF638-IT1 / RFU, PANK3 / Fold change vs veh, PANK3 / RFU, SH3YL1 / Fold change vs veh, SH3YL1 / RFU, ZEB2 / Fold change vs veh, ZEB2 / RFU, NRIP1 / Fold change vs veh, NRIP1 / RFU, PTTG1IP / Fold change vs veh, PTTG1IP / RFU, CAPN2 / Fold change vs veh, CAPN2 / RFU, MED14 / Fold change vs veh, MED14 / RFU, SNORA58 / Fold change vs veh, SNORA58 / RFU, C1orf63 / Fold change vs veh, C1orf63 / RFU, LRRFIP1 / Fold change vs veh, LRRFIP1 / RFU, NDUFAF7 / Fold change vs veh, NDUFAF7 / RFU, SLC12A2 / Fold change vs veh, SLC12A2 / RFU, IBTK / Fold change vs veh, IBTK / RFU, ESF1 / Fold change vs veh, ESF1 / Fold change vs veh, TMEM50B / RFU, TAOK1 / Fold change vs veh, TAOK1 / RFU, ACBD3 / Fold change vs veh, ACBD3 / RFU, TMA16 / Fold change vs veh, TMA16 / RFU, RWDD3 / Fold change vs veh, RWDD3 / RFU, BCAT1 / Fold change vs veh, BCAT1 / RFU, EDEM3 / Fold change vs veh, EDEM3 / RFU, TMEM33 / Fold change vs veh, TMEM33 / RFU, WDR75 / Fold change vs veh, WDR75 / RFU, AHCTF1 / Fold change vs veh, AHCTF1 / RFU, TFRC / Fold change vs veh, TFRC / RFU, ZDHHC17 / Fold change vs veh, ZDHHC17 / RFU, NOM1 / Fold change vs veh, NOM1 / RFU, ARL8B / Fold change vs veh, ARL8B / RFU, ZBTB11 / Fold change vs veh, ZBTB11 / RFU, TAMM41 / Fold change vs veh, TAMM41 / RFU, KIAA1704 /// LOC100996395 / Fold change vs veh, KIAA1704 /// LOC100996395 / RFU, ING1 / Fold change vs veh, ING1 / RFU, TRMT61B / Fold change vs veh, TRMT61B / RFU, FUBP3 / Fold change vs veh, FUBP3 / RFU, TP53 / Fold change vs veh, TP53 / RFU, TNKS2 / Fold change vs veh, TNKS2 / RFU, ZFP14 / Fold change vs veh, ZFP14 / RFU, ACTR2 / Fold change vs veh, ACTR2 / RFU, PPP3R1 / Fold change vs veh, PPP3R1 / RFU, PIK3R1 / Fold change vs veh, PIK3R1 / RFU, HNRNPA1 / Fold change vs veh, HNRNPA1 / RFU, RNF170 / Fold change vs veh, RNF170 / RFU, ZNF28 / Fold change vs veh, ZNF28 / RFU, RNGTT / Fold change vs veh, RNGTT / RFU, OGT / Fold change vs veh, OGT / RFU, BRD1 / Fold change vs veh, BRD1 / RFU, MARS / Fold change vs veh, MARS / RFU, ZNF655 / Fold change vs veh, ZNF655 / RFU, FAHD1 / Fold change vs veh, FAHD1 / RFU, BDP1 / Fold change vs veh, BDP1 / RFU, LRRCC1 / Fold change vs veh, LRRCC1 / RFU, ARID1A / Fold change vs veh, ARID1A / RFU, ZNF146 / Fold change vs veh, ZNF146 / RFU, ZNF330 / Fold change vs veh, ZNF330 / RFU, GPN3 / Fold change vs veh, GPN3 / RFU, C9orf123 / Fold change vs veh, C9orf123 / RFU, N4BP2L2 / Fold change vs veh, N4BP2L2 / RFU, ARFIP1 / Fold change vs veh, ARFIP1 / RFU, FAM179B / Fold change vs veh, FAM179B / RFU, BCL10 / Fold change vs veh, BCL10 / RFU, UHRF1BP1L / Fold change vs veh, UHRF1BP1L / RFU, BET1 / Fold change vs veh, BET1 / RFU, CNOT2 / Fold change vs veh, CNOT2 / RFU, ZNF268 / Fold change vs veh, ZNF268 / Fold change vs veh, ZNF507 / RFU, DGCR2 / Fold change vs veh, DGCR2 / RFU, WDSUB1 / Fold change vs veh, WDSUB1 / Fold change vs veh, HSP90B1 /// MIR3652 / RFU, ADSS / Fold change vs veh, ADSS / RFU, GK / Fold change vs veh, GK / RFU, ZNF148 / Fold change vs veh, ZNF148 / RFU, TAF9 / Fold change vs veh, TAF9 / RFU, SLC1A5 / Fold change vs veh, SLC1A5 / RFU, SLMO2 / Fold change vs veh, SLMO2 / RFU, ABCC4 / Fold change vs veh, ABCC4 / RFU, LOC101060439 /// RAP1B / Fold change vs veh, LOC101060439 /// RAP1B / RFU, RFX7 / Fold change vs veh, RFX7 / RFU, GTPBP10 / Fold change vs veh, GTPBP10 / RFU, CNEP1R1 / Fold change vs veh, CNEP1R1 / RFU, BIVM-ERCC5 /// ERCC5 / Fold change vs veh, BIVM-ERCC5 /// ERCC5 / RFU, ILF3 / Fold change vs veh, ILF3 / RFU 11762660_at / Fold change /veh 11762660_at / RFU VCAN (11757783_s_at) / Fold change /veh VCAN (11757783_s_at) / RFU DDX43 (11728927_at) / Fold change /veh DDX43 (11728927_at) / RFU KRT8 (11758188_x_at) / Fold change /veh KRT8 (11758188_x_at) / RFU NKD1 (11759106_at) / Fold change /veh NKD1 (11759106_at) / RFU SRD5A1 (11742802_a_at) / Fold change /veh SRD5A1 (11742802_a_at) / RFU TPSAB1 /// TPSB2 (11721975_s_at) / Fold change /veh TPSAB1 /// TPSB2 (11721975_s_at) / RFU GSTM3 (11746129_a_at) / Fold change /veh GSTM3 (11746129_a_at) / RFU IL23R (11737362_x_at) / Fold change /veh IL23R (11737362_x_at) / RFU TMEM51 (11727254_a_at) / Fold change /veh TMEM51 (11727254_a_at) / RFU PIWIL2 (11732686_x_at) / Fold change /veh PIWIL2 (11732686_x_at) / RFU ORM1 (11744905_x_at) / Fold change /veh ORM1 (11744905_x_at) / RFU CCDC152 (11743942_at) / Fold change /veh CCDC152 (11743942_at) / RFU ECM1 (11717891_a_at) / Fold change /veh ECM1 (11717891_a_at) / RFU IL23R (11748794_a_at) / Fold change /veh IL23R (11748794_a_at) / RFU TNFAIP8L3 (11732012_x_at) / Fold change /veh TNFAIP8L3 (11732012_x_at) / RFU MBOAT4 (11741988_at) / Fold change /veh MBOAT4 (11741988_at) / RFU 11764193_at / Fold change /veh 11764193_at / RFU TMEM53 (11763286_at) / Fold change /veh TMEM53 (11763286_at) / RFU MAGEB2 (11727129_at) / Fold change /veh MAGEB2 (11727129_at) / RFU TMEM200A (11744735_a_at) / Fold change /veh TMEM200A (11744735_a_at) / RFU CCDC152 (11751479_a_at) / Fold change /veh CCDC152 (11751479_a_at) / RFU FAM211A (11726209_a_at) / Fold change /veh FAM211A (11726209_a_at) / RFU RGS16 (11746705_a_at) / Fold change /veh RGS16 (11746705_a_at) / RFU VCAN (11755009_s_at) / Fold change /veh VCAN (11755009_s_at) / RFU RHOB (11743442_s_at) / Fold change /veh RHOB (11743442_s_at) / RFU RGS16 (11720943_a_at) / Fold change /veh RGS16 (11720943_a_at) / RFU RGS16 (11720944_at) / Fold change /veh RGS16 (11720944_at) / RFU, VPS4B / Fold change vs veh, VPS4B / RFU, CREB1 / Fold change vs veh, CREB1 / RFU, DNAJC13 / Fold change vs veh, DNAJC13 / RFU, GNAQ / Fold change vs veh, GNAQ / RFU, CDK5R1 / Fold change vs veh, CDK5R1 / RFU, ZRANB3 / Fold change vs veh, ZRANB3 / RFU, CUL4A / Fold change vs veh, CUL4A / RFU, CCNY / Fold change vs veh, CCNY / RFU, UFL1 / Fold change vs veh, UFL1 / RFU, COG3 / Fold change vs veh, COG3 / RFU, DIAPH2 / Fold change vs veh, DIAPH2 / RFU, SKA2 / Fold change vs veh, SKA2 / RFU, AFF3 / Fold change vs veh, AFF3 / RFU, LMF1 / Fold change vs veh, LMF1 / RFU, IPO11 / Fold change vs veh, IPO11 / RFU, DFFB / Fold change vs veh, DFFB / RFU, FOXP1 / Fold change vs veh, FOXP1 / RFU, CARD8 / Fold change vs veh, CARD8 / RFU, STRN3 / Fold change vs veh, STRN3 / RFU, ADK / Fold change vs veh, ADK / RFU, RASSF2 / Fold change vs veh, RASSF2 / RFU, WIPF1 / Fold change vs veh, WIPF1 / RFU, LARP1B / Fold change vs veh, LARP1B / RFU, RASA1 / Fold change vs veh, RASA1 / RFU, RB1 / Fold change vs veh, RB1 / RFU, PPFIA1 / Fold change vs veh, PPFIA1 / RFU, MAT2A / Fold change vs veh, MAT2A / RFU, CCT5 / Fold change vs veh, CCT5 / RFU, WDR92 / Fold change vs veh, WDR92 / RFU, CUX1 / Fold change vs veh, CUX1 / RFU, TTC7A / Fold change vs veh, TTC7A / RFU, TMEM135 / Fold change vs veh, TMEM135 / RFU, DEPTOR / Fold change vs veh, DEPTOR / RFU, CPM / Fold change vs veh, CPM / RFU, DNAJB6 / Fold change vs veh, DNAJB6 / RFU, CACNA2D3 / Fold change vs veh, CACNA2D3 / RFU, DTX4 / Fold change vs veh, DTX4 / RFU, TFCP2 / Fold change vs veh, TFCP2 / RFU, GMCL1 /// GMCL1P1 / Fold change vs veh, GMCL1 /// GMCL1P1 / RFU, AEBP2 / Fold change vs veh, AEBP2 / RFU, SNHG1 /// SNORD22 /// SNORD25 /// SNORD26 /// SNORD27 /// SNORD28 /// SNORD29 /// SNORD31 / Fold change vs veh, SNHG1 /// SNORD22 /// SNORD25 /// SNORD26 /// SNORD27 /// SNORD28 /// SNORD29 /// SNORD31 / Fold change (Aza/veh), C12orf56 (ProbeSet 11735607_a_at) / Fold change (ACY-1035/veh), C12orf56 (ProbeSet 11735607_a_at) / Fold change (Aza/veh), FGFR1OP (ProbeSet 11751329_s_at) / Fold change (ACY-1035/veh), FGFR1OP (ProbeSet 11751329_s_at) / Fold change (Aza/veh), VPS36 (ProbeSet 11739960_a_at) / Fold change (ACY-1035/veh), VPS36 (ProbeSet 11739960_a_at) / RFU SYPL1 (11715823_x_at) / Fold change /veh SYPL1 (11715823_x_at) / RFU IGFBP7 (11715501_s_at) / Fold change /veh IGFBP7 (11715501_s_at) / RFU REEP3 (11722064_at) / Fold change /veh REEP3 (11722064_at) / RFU IGLL1 (11728026_x_at) / Fold change /veh IGLL1 (11728026_x_at): dose or concentration left out as unconfirmed. Conditions: ProbeSet 11763166_a_at; LIST B.

Molecules are shown by their SMILES.

Data on 1 compound can be found in paper PMC5218480 (PLoS ONE, 2017).

As for `Nc1ccc(-c2cccs2)cc1NC(=O)c1ccc2c(c1)cc(C1CC1)n2CCN1CCOCC1` [ACY-1035], the “RFU, MARS” value is reported as 48.43 RFU.
